Columns and labels:
Format in all cases: cell-based, human
C4-2 cells = assay: C4-2 cell proliferation (complete or CSS+DHT medium); details: 5 days; for Proliferation (% untreated control): C4-2 cells
Experimental: After a treatment period of 5 days in complete medium or CSS+1 nM DHT medium, the proliferative capacity of the cancer cells was measured with using CellTiter 96® AQueous One Solution or CellTiter-Glo® Cell Proliferation kit (Promega), following the manufacturer's instructions. […] The proliferative capacity of cells cultured in CSS medium without DHT is 17% of untreated control levels.

AR mRNA = assay: Time-course AR mRNA expression in C4-2B cells (8, 24, 48 hours); details: for Percent expression of AR compared to the control group in 8 hours / Percent expression of AR compared to the control group in 24 hours / Percent expression of AR compared to the control group in 48 hours: C4-2B cells
Experimental: C4-2B cells were plated at 1,000 cells per well in complete medium. […] After a treatment period of 8 hours, 24 hours, and 48 hours, AR expression was measured with primer probe set hAR-LTS00943.

TMPRSS2 mRNA = assay: TMPRSS2 expression in LNCaP cells (complete, CSS+DHT medium); details: for Percent inhibition of TMPRSS2 expression in LNCaP cells cultured in CSS + DHT medium: CSS + DHT (1 nM) medium, 48 hrs; for Percent inhibition of TMPRSS2 expression in LNCaP cells cultured in complete medium: 48 hours
Experimental: Cells were plated at 1,000 cells per well. […] ISIS 549148 was included as a negative control. […] After an incubation period of 48 hours, RNA levels of AR, PSA and TMPRSS2 were measured.
Cells were plated at 2,000 cells per well and cultured in phenol red-free RPMI supplemented with 5% charcoal stripped serum (Gibco) media for 16 hours. […] ISIS 549148 was included as a negative control. […] After an incubation period of 4 hrs, DHT was added to the medium to a final concentration of 1 nM as indicated. RNAs were collected 48 hrs later and levels of AR, PSA and TMPRSS2 were measured. In the absence of DHT, AR expression in LNCaP cells was 95%, PSA expression was 7% and TMPRSS2 expression was 24% compared to the untreated control.

VCaP cells = assay: VCaP cell proliferation; details: 5 days; for Proliferation (% untreated control): VCaP cells
Experimental: After a treatment period of 5 days in complete medium or CSS+1 nM DHT medium, the proliferative capacity of the cancer cells was measured with using CellTiter 96® AQueous One or CellTiter-Glo® Solution Cell Proliferation kit (Promega), following the manufacturer's instructions. […] Treatment with ISIS oligonucleotides in CSS+DHT medium reduced the proliferative capacity to a greater extent than treatment with MVD-3100. The proliferative capacity of cells cultured in CSS medium without DHT is 12% of untreated control levels.

PSA mRNA [1] = assay: PSA expression in C4-2B cells (Example 30); details: 48 hrs
Experimental: Cells were plated at 1,000 cells per well. […] ISIS 549148 was included as a negative control. […] After an incubation period of 48 hrs, RNA levels of AR, PSA and TMPRSS2 were measured.
Cells were plated at 2,000 cells per well and cultured in CSS media with 1 nM DHT. […] ISIS 549148 was included as a negative control. […] After an incubation period of 48 hrs, RNA levels of AR, PSA and TMPRSS2 were measured. In the absence of DHT, AR expression in C4-2 cells was 188%, PSA expression was 43% and TMPRSS2 expression was 27% compared to the untreated control.

C4-2B cells = assay: C4-2B cell proliferation (complete or CSS+DHT medium; Example 30); details: 5 days; for Proliferation (% untreated control): C4-2B cells
Experimental: After a treatment period of 5 days in complete medium or CSS+1 nM DHT medium, the proliferative capacity of the cancer cells was measured with using CellTiter 96® AQueous One or CellTiter-Glo® Solution Cell Proliferation kit (Promega), following the manufacturer's instructions.

PSA mRNA [2] = assay: PSA expression in 22RV1 cells; details: 48 hrs
Experimental: Cells were plated at 1,000 cells per well. […] After an incubation period of 48 hrs, RNA levels of full length AR, the V7 variant, PSA and TMPRSS2 were measured.
After an incubation period of 48 hrs, RNA levels of full length AR, the V7 variant, PSA and TMPRSS2 were measured.
Cells were plated at 2,000 cells per well and cultured in CSS media for 16 hours. […] After 4 hrs, 1 nM DHT was added. […] After an incubation period of 48 hrs, RNA levels of AR, AR V7 variant, PSA and TMPRSS2 were measured.

[3] = complete medium or CSS+1 nM DHT

For `CNC(=O)c1ccc(N2C(=S)N(c3ccc(C#N)c(C(F)(F)F)c3)C(=O)C2(C)C)cc1F` [MDV3100, 4-(3-(4-cyano-3-(trifluoromethyl)phenyl)-5,5-dimethyl-4-oxo-2-thioxoimidazolidin-1-yl)-2-fluoro-N-methylbenzamide, reference compound], the “Proliferation (% untreated control)” value (C4-2 cells; CSS + DHT medium, 0.04 μM) was 122 % untreated control, the “Proliferation (% untreated control)” value (C4-2 cells; CSS + DHT medium, 0.2 μM) was 124 % untreated control and the “Proliferation (% untreated control)” value (C4-2 cells; CSS + DHT medium, 1 μM) was 87 % untreated control. For the same molecule, the “Proliferation (% untreated control)” value (C4-2 cells; CSS + DHT medium, 5.0 μM) was 22 % untreated control, the “Proliferation (% untreated control)” value (C4-2 cells; complete medium, 0.04 μM) was 105 % untreated control and the “Proliferation (% untreated control)” value (C4-2 cells; complete medium, 0.2 μM) was 108 % untreated control. For the same molecule, the “Proliferation (% untreated control)” value (C4-2 cells; complete medium, 1 μM) was 71 % untreated control, the “Proliferation (% untreated control)” value (C4-2 cells; complete medium, 5.0 μM) was 67 % untreated control and the “proliferation of C4-2 cells” value (C4-2 cells; [3]) was “reduced proliferation of the cells in a dose dependent manner compared to the control”. The “Percent expression of AR compared to the control group in 8 hours” value (from here on “Percent expression of AR … in 8 hours”) (AR mRNA; 0.04 μM) was 99%, the “Percent expression of AR compared to the control group in 24 hours” value (from here on “Percent expression of AR … in 24 hours”) (AR mRNA; 0.04 μM) was 88% and the “Percent expression of AR compared to the control group in 48 hours” value (from here on “Percent expression of AR … in 48 hours”) (AR mRNA; 0.04 μM) was 94%. For the same molecule, the “Percent expression of AR … in 8 hours” value (AR mRNA; 0.2 μM) was 100%, the “Percent expression of AR … in 24 hours” value (AR mRNA; 0.2 μM) was 99% and the “Percent expression of AR … in 48 hours” value (AR mRNA; 0.2 μM) was 94%. For the same molecule, the “Percent expression of AR … in 8 hours” value (AR mRNA; 1 μM) was 92%, the “Percent expression of AR … in 24 hours” value (AR mRNA; 1 μM) was 96% and the “Percent expression of AR … in 48 hours” value (AR mRNA; 1 μM) was 113%. The “Percent expression of AR … in 24 hours” value (AR mRNA; 5.0 μM) was 84%, the “Percent expression of AR … in 48 hours” value (AR mRNA; 5.0 μM) was 126% and the AR expression (AR mRNA; C4-2B cells, 8, 24 and 48 hours) was “increased AR expression at the 48 hour time-point”. For the same molecule, the “Percent inhibition of TMPRSS2 expression in LNCaP cells cultured in CSS + DHT medium” value (from here on “Percent inhibition … in CSS + DHT medium”) (TMPRSS2 mRNA; 0.04 μM) was 8%, the “Percent inhibition … in CSS + DHT medium” value (TMPRSS2 mRNA; 0.2 μM) was 24% and the “Percent inhibition … in CSS + DHT medium” value (TMPRSS2 mRNA; 1 μM) was 60%. For the same molecule, the “Percent inhibition … in CSS + DHT medium” value (TMPRSS2 mRNA; 5.0 μM) was 69%, the “Percent inhibition of TMPRSS2 expression in LNCaP cells cultured in complete medium” value (“Percent inhibition … in complete medium” below) (TMPRSS2 mRNA; 0.04 μM) was 0% and the “Percent inhibition … in complete medium” value (TMPRSS2 mRNA; 0.2 μM) was 0%. For the same molecule, the “Percent inhibition … in complete medium” value (TMPRSS2 mRNA; 1 μM) was 34%, the “Percent inhibition … in complete medium” value (TMPRSS2 mRNA; 5.0 μM) was 39% and the “Proliferation (% untreated control)” value (VCaP cells; CSS + DHT medium, 0.04 μM) was 117 % untreated control. The “Proliferation (% untreated control)” value (VCaP cells; CSS + DHT medium, 0.2 μM) was 119 % untreated control, the “Proliferation (% untreated control)” value (VCaP cells; CSS + DHT medium, 1.0 μM) was 71 % untreated control and the “Proliferation (% untreated control)” value (VCaP cells; CSS + DHT medium, 5.0 μM) was 65 % untreated control. The “Proliferation (% untreated control)” value (VCaP cells; Complete medium, 0.04 μM) was 49 % untreated control, the “Proliferation (% untreated control)” value (VCaP cells; Complete medium, 0.2 μM) was 44 % untreated control and the “Proliferation (% untreated control)” value (VCaP cells; Complete medium, 1.0 μM) was 27 % untreated control. For the same molecule, the “Proliferation (% untreated control)” value (VCaP cells; Complete medium, 5.0 μM) was 17 % untreated control, the “proliferation of VCaP cells” value (VCaP cells; [3]) was “reduced proliferation of the cells in a dose dependent compared to the control” and the “Percent inhibition of PSA expression” value (PSA mRNA [1]; CSS + DHT medium, 0.04 μM) was 0%. For the same molecule, the “Percent inhibition of PSA expression” value (PSA mRNA [1]; CSS + DHT medium, 0.2 μM) was 0%, the “Percent inhibition of PSA expression” value (PSA mRNA [1]; CSS + DHT medium, 1 μM) was 37% and the “Percent inhibition of PSA expression” value (PSA mRNA [1]; CSS + DHT medium, 5.0 μM) was 45%. The “Percent inhibition of PSA expression” value (PSA mRNA [1]; complete medium, 0.04 μM) was 8%, the “Percent inhibition of PSA expression” value (PSA mRNA [1]; complete medium, 0.2 μM) was 27% and the “Percent inhibition of PSA expression” value (PSA mRNA [1]; complete medium, 1 μM) was 73%. For the same molecule, the “Percent inhibition of PSA expression” value (PSA mRNA [1]; complete medium, 5.0 μM) was 88%, the “Proliferation (% untreated control)” value (C4-2B cells; CSS + DHT medium, 0.04 μM) was 125 % untreated control and the “Proliferation (% untreated control)” value (C4-2B cells; CSS + DHT medium, 0.2 μM) was 100 % untreated control. For the same molecule, the “Proliferation (% untreated control)” value (C4-2B cells; CSS + DHT medium, 1 μM) was 83 % untreated control, the “Proliferation (% untreated control)” value (C4-2B cells; CSS + DHT medium, 5.0 μM) was 17 % untreated control and the “Proliferation (% untreated control)” value (C4-2B cells; complete medium, 0.04 μM) was 131 % untreated control. The “Proliferation (% untreated control)” value (C4-2B cells; complete medium, 0.2 μM) was 105 % untreated control, the “Proliferation (% untreated control)” value (C4-2B cells; complete medium, 1 μM) was 72 % untreated control and the “Proliferation (% untreated control)” value (C4-2B cells; complete medium, 5.0 μM) was 60 % untreated control. For the same molecule, the “proliferation of C4-2B cells” value (C4-2B cells; [3]) was “reduced proliferation of the cells in a dose dependent compared to the control”, the “Percent of gene expression, PSA” value (PSA mRNA [2]; CSS + DHT medium, 0.04 μM) was 15% and the “Percent of gene expression, PSA” value (PSA mRNA [2]; CSS + DHT medium, 0.2 μM) was 19%. The “Percent of gene expression, PSA” value (PSA mRNA [2]; CSS + DHT medium, 1.0 μM) was 18%, the “Percent of gene expression, PSA” value (PSA mRNA [2]; CSS + DHT medium, 5.0 μM) was 16% and the “Percent of gene expression, PSA” value (PSA mRNA [2]; complete medium, 0.04 μM) was 83%. The “Percent of gene expression, PSA” value (PSA mRNA [2]; complete medium, 0.2 μM) was 70%, the “Percent of gene expression, PSA” value (PSA mRNA [2]; complete medium, 1.0 μM) was 71% and the “Percent of gene expression, PSA” value (PSA mRNA [2]; complete medium, 5.0 μM) was 86%.
